Columns and labels:
[1] = system: CD4+ T cells in PBMC from people with recent onset T1D; experiment: CFSE-based proliferation assay, PBMC of people with T1D; type: cell-based, human; conditions: peptide 10 μM; for Cell division index (CDI): CFSE-labelled PBMC
Protocol: (§1) Blood was obtained by venepuncture. Peripheral blood mononuclear cells (PBMC) were isolated over Ficoll-paque (GE Healthcare) and washed twice in phosphate buffered saline (PBS) as described. The CFSE (5,6-carboxyfluorescein diacetate succinimidyl ester) proliferation assays were performed as described previously. CFSE-labelled PBMC were cultured with either: no antigen, full-length C-peptide (^PI33-63), or ^PI33-63 Q38E (referred to as Q6E), ^PI33-63 Q41E (referred to as Q9E), ^PI33-63 Q54E, (referred to as Q22E) ^PI33-63 Q63E (referred to as Q31E), or ^PI33-63 with all glutamines substituted for glutamic acid, (referred to as QallE). See Supplementary Table 5 for a detailed description of the peptides. Each peptide was used at a final concentration of 10 μM. Positive controls were tetanus toxoid (TT 10LfU/ml, Statens Serum Institut) and/or anti-CD3 (OKT3 10 ng/ml). The results are presented as a cell division index (CDI), the ratio of the number of CD4^+ T cells that have proliferated in the presence of antigen to the number of CD4^+ T cells that have proliferated in the absence of antigen.
(§2) Our analysis of CD4^+ Jurkat lines expressing TCRs derived from primary CD4^+ T cells used TCRs derived from CD4^+ T cells that were selected for their specificity for WT C-peptide. […] This may be due to Q to E substitutions being poorly tolerated by the TCRs that were selected based on their recognition of WT C-peptide. To address this, we measured polyclonal CD4^+ T-cell responses in PBMC from people with recent onset type 1 diabetes. (see Supplementary Tables 5 and 6 for details of each subject). […] Next, in a separate cohort we investigated CD4^+ T-cell responses to the five C-peptide variants with individual Q to E substitutions in PBMC of people with recent onset type 1 diabetes (Fig. 3B). We found, as expected, that a majority of PBMC samples responded to WT C-peptide, but responses to Q to E substituted C-peptide variants were not stronger, in fact in most cases they were weaker, than responses to WT C-peptide. (See Supplementary Tables 7–9 for results from individual subjects). Finally, we asked if people without T1D, but who carried the T1D-associated HLA alleles, HLA-DQ2, or HLA-DQ8 had stronger responses to Q to E substituted C-peptide variants (Fig. 3C). Here few subjects had response to WT C-peptide and only a minority had greater responses to Q to E substituted variants of C-peptide, compared to WT C-peptide.
(§3) Fig. 3 PBMC responses to WT and deamidated C-peptide variants. (A) Proliferation in responses, measured as a cell division index (CDI) to WT or QallE C-peptide were compared in 8 PBMC from 8 people with recent onset T1D. Responses from the same individual are linked. […] (B) PBMC proliferation responses to WT and C-peptide variants with individual Q to E substitution and QallE from people with recent onset T1D (B) and HLA matched control subjects who don't have T1D (C). Only difference which reached statistical significance are marked (* = P < 0.05). For responses in subjects without T1D, none of the differences between groups reached statistical significance, p > 0.05, by Wilcoxon matched pairs signed rank test of Log 10 transformed CDI data. Each point is a different individual, bars show the mean and the standard deviation for each group.

[2] = system: CD4+ T cells in PBMC from subjects without T1D; experiment: CFSE-based proliferation assay, PBMC of subjects without T1D; type: cell-based, human; conditions: CFSE-labelled PBMC, peptide 10 μM, mean CDI
Protocol: as §1, §2, §3

Sequence | Cell division index (CDI) ([1]; T1D donor 9, mean CDI) | Cell division index (CDI) ([1]; T1D donor 10, mean CDI) | Cell division index (CDI) ([1]; T1D donor 11, mean CDI) | Cell division index (CDI) ([1]; T1D donor 12, mean CDI) | Cell division index (CDI) ([1]; T1D donor 13, mean CDI) | Cell division index (CDI) ([1]; T1D donor 14, mean CDI) | Cell division index (CDI) ([1]; T1D donor 15, mean CDI) | Cell division index (CDI) ([1]; T1D donor 16, mean CDI) | Cell division index (CDI) ([1]; T1D donor 17, mean CDI) | Cell division index (CDI) ([1]; T1D donor 18, mean CDI) | Cell division index (CDI) ([2]; donor 1 without T1D) | Cell division index (CDI) ([2]; donor 2 without T1D) | Cell division index (CDI) ([2]; donor 3 without T1D) | Cell division index (CDI) ([2]; donor 4 without T1D) | Cell division index (CDI) ([2]; donor 5 without T1D) | Cell division index (CDI) ([2]; donor 6 without T1D) | also measured
EAEDLEVGEVELGGGPGAGSLEPLALEGSLE [QallE, C-peptide with all four glutamines substituted for glutamic acid] | 0.3 | 1.0 | 1.0 | 1.4 | 24.7 | 15.1 | 21.3 | 0.7 | 2.0 | 1.5 | 15.8 | 1.2 | 0.9 | 1.3 | 1.7 | 7.8 | CD4+ T-cell proliferation response compared with WT C-peptide ([1]; PBMC from 8 people with recent onset T1D, Fig. 3A, difference not statistically significant): slightly weaker response; Cell division index (CDI) ([1]; T1D donor 1, mean CDI = proliferated CD4+ T cells with antigen / without antigen): 3.5; Cell division index (CDI) ([1]; T1D donor 2, mean CDI): 8.6; Cell division index (CDI) ([1]; T1D donor 3, mean CDI): 2.1; Cell division index (CDI) ([1]; T1D donor 4, mean CDI): 2.9; Cell division index (CDI) ([1]; T1D donor 5, mean CDI): 4.8; Cell division index (CDI) ([1]; T1D donor 6, mean CDI): 1.5; Cell division index (CDI) ([1]; T1D donor 7, mean CDI): 2.5; Cell division index (CDI) ([1]; T1D donor 8, mean CDI): 15.9
EAEDLQVGEVELGGGPGAGSLQPLALEGSLQ [Q9E, C-peptide variant with glutamine 9 substituted for glutamic acid] | 3.9 | 1.3 | 0.8 | 8.0 | 38.4 | 11.1 | 5.1 | 3.7 | 11.3 | 3.4 | 1.0 | 1.4 | 1.2 | 0.8 | 6.1 | 3.4 | –
EAEDLQVGQVELGGGPGAGSLQPLALEGSLE [Q31E, C-peptide variant with glutamine 31 substituted for glutamic acid] | 0.3 | 2.0 | 0.9 | 3.7 | 11.8 | 3.6 | 6.4 | 1.5 | 7.6 | 1.0 | 1.3 | 1.7 | 3.6 | 0.8 | 22.3 | 1.9 | –

Reference: paper PMC9811213, “Glutamine deamidation does not increase the immunogenicity of C-peptide in people with type 1 diabetes” (Journal of Translational Autoimmunity, 2022)
